Measured values taken from article PMC8802628, “Selective activation of PFKL suppresses the phagocytic oxidative burst” (Cell, 2021).

Experiments:
PFKL [1] = target: T1, PFKL (Homo sapiens, UniProt P17858); experiment: Thermal shift of PFKL by immunoblotting in THP-1 lysates; type: binding
T1 construct: endogenous in cells; host or cells: THP-1 cell lysate
T1 sequence (P17858 2-780 limits assumed): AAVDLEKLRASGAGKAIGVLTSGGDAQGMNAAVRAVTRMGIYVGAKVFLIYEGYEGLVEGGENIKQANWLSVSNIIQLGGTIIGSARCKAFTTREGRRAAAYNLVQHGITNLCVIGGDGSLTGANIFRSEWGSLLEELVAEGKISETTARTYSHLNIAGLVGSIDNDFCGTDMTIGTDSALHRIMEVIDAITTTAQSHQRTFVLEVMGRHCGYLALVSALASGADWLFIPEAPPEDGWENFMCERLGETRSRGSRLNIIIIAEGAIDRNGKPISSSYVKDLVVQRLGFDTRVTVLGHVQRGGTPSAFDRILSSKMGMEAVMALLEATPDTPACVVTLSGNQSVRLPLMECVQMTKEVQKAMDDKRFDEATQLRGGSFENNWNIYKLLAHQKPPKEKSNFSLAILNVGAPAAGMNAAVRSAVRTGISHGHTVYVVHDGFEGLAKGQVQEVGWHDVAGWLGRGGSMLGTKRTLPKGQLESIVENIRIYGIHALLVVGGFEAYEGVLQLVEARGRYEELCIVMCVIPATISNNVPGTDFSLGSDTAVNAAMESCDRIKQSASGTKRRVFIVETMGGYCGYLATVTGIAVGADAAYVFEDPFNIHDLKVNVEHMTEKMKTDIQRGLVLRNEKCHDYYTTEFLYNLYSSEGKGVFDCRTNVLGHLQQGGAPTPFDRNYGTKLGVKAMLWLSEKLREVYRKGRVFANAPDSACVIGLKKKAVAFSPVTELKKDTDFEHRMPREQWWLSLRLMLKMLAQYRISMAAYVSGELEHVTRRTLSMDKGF
Method: Figure 2. Chemoproteomic analysis of the global interactors and specific targets of NA-11 (A) Dual chemoproteomic workflow. (B) TPP analysis of neutrophil lysates. Graph plots the ΔTm induced by NA-11 between 37°C and 65°C versus log2(fold change in the area under the melting curve from 44°C to 58°C). Each circle represents a different protein. Top hits with an upward shift in Tm are boxed. p values were determined by paired Student’s t test. (C) Percentage of PMNs undergoing PMA-induced NETosis. Bars show the mean ± SD of cells from three donors. (D) Structures of PALP1 and PALP6. […] Dot size indicates the p values from the affinity pull-downs (paired Student’s t test). […] (F) Western blots of THP-1 lysates heated for 3 min. Graph indicates PFKL band intensities quantified using ImageJ. Data are the mean ± SD of three independent experiments. See also Figures S2 and S3.
We validated the interaction of NA-11 with PFKL in THP-1 cells by immunoblotting PFKL in TPP samples (Figure 2F). […] PDE6δ sustains Ras signaling, which activates the Raf-MEK (mitogen-activated ERK kinase)-ERK (extracellular signal-regulated kinase) pathway ([Chandra et al., 2011]). […] Thus, NA-11 must not inhibit NETosis by compromising the MEK-ERK signaling cascade downstream of PDE6δ.

PFKL [2] = target: T1, PFKL; experiment: Thermal proteome profiling (TPP) of neutrophil lysates; type: binding; settings: 10 μM NA-11, 37°C to 65°C
Method: Neutrophils (3 × 10^7) were treated with 50 nM PMA for 20 min. Cell were washed twice in D-PBS, resuspended in KB buffer (25 mM Tris-HCL pH 7.5, 1 mM DTT, 10 mM MgCl2) and frozen in liquid nitrogen. Lysates were prepared by 5-7 freeze-thaw cycles in KB buffer. Protein concentration was determined via Bradford assay and lysates were incubated on ice for 30 min with either 10 μM NA-11 or DMSO vehicle. Samples were analyzed in two formats: (1) classical thermal proteome profiling (TPP) with full melting curves using 16-plex TMT labeling (8 temperatures between 37-65°C), and (2) Proteome Integral Solubility Alteration (PISA) assay with aggregated protein abundance from a defined temperature range using 10-plex TMT labeling (Five replicates 44-58°C). […]
For the classical TPP, quantitative data from each temperature were used to generate a thermal titration curve and calculate a melting point. PSM level quantitation was log2 transformed and summarized to protein level by aggregating all PSMs from the same primary Uniprot reference, and systematic variation between the treatments was normalized at each temperature. […] A quality score is calculated for each protein by evaluating R squares, curve slopes and similarity in slopes between the two fitted curves. […] Fold changes and p values were calculated between pre-defined treatment groups by the MSstats package. […]

CC(=O)Nc1ccc2c(c1)OCc1cc(-c3ccccc3C#CCCCO)nn1C2 [NA-11]
melting temperature of PFKL with compound (PFKL [1]; 55°C ± 1°C without shift): 59 °C | thermal shift in PFKL (PFKL [1]; immunoblot): 4 °C | thermal shift in melting temperature (Tm) of PFKL (PFKL [2]): 4 °C
